Among the data in ChEMBL document CHEMBL1629577, “Activity of T-705 in a hamster model of yellow fever virus infection in comparison with that of a chemically related compound, T-1106” (Antimicrob Agents Chemother, 2009) are Activity and Time values, retold here.

Calls of active or inactive are those of the source. The calls are words filed in the database; no cut-off is given here.

The subject of assay [1] is Yellow fever virus. As to the kind of experiment: Antiviral activity against 10^2 CCID50 Yellow fever virus Jimenez infected in syrian golden hamster assessed as serum survival of animal at 100 mg/kg/day, po administered twice daily for 8 days started 4 hrs prior to viral infection. In kind it is functional, organism-based.
Assay [2] deals with Yellow fever virus. As to the kind of experiment: Antiviral activity against 10^2 CCID50 Yellow fever virus Jimenez infected in syrian golden hamster assessed as mean day of death […] at 400 mg/kg/day, po administered twice daily for 8 days started 4 hrs prior to viral infection relative to control. In kind it is functional.
Assay [3] deals with Yellow fever virus. As to the kind of experiment: Antiviral activity against 10^2 CCID50 Yellow fever virus Jimenez infected in syrian golden hamster assessed as mean day of death […] at 200 mg/kg/day, po administered twice daily for 8 days started 4 hrs prior to viral infection relative to control. The class given is functional.
The subject of assay [4] is Yellow fever virus. As to the kind of experiment: Antiviral activity against 10^2 CCID50 Yellow fever virus Jimenez infected in syrian golden hamster assessed as serum AST level in non surviving animals at 400 mg/kg/day, po administered 4 days post viral infection. In kind it is functional.
In assay [5] the test system is Yellow fever virus. As to the kind of experiment: Antiviral activity against 10^2 CCID50 Yellow fever virus Jimenez infected in syrian golden hamster assessed as serum AST level at 32 mg/kg/day, po administered twice daily for 8 days started 4 hrs prior to viral infection. The class given is functional, organism-based.
Assay [6] concerns Yellow fever virus. As to the kind of experiment: Antiviral activity against 10^2 CCID50 Yellow fever virus Jimenez infected in syrian golden hamster assessed as serum AST level at 400 mg/kg/day, po administered daily for days started 2 day post viral challenge. In kind it is functional.
In assay [7] the test system is Yellow fever virus. As to the kind of experiment: Antiviral activity against 10^2 CCID50 Yellow fever virus Jimenez infected in syrian golden hamster assessed as serum AST level at 400 mg/kg/day, po administered daily for days started 1 day post viral challenge. In kind it is functional.
The test system of assay [8] is Yellow fever virus. As to the kind of experiment: Antiviral activity against 10^2 CCID50 Yellow fever virus Jimenez infected in syrian golden hamster assessed as serum ALT level at 400 mg/kg/day, po administered twice daily for 8 days started 4 hrs prior to viral infection. The class given is functional.
Assay [9] concerns Yellow fever virus. As to the kind of experiment: Antiviral activity against 10^2 CCID50 Yellow fever virus Jimenez infected in syrian golden hamster assessed as serum AST level at 400 mg/kg/day, po administered daily for days started 4 day post viral challenge. The class given is functional.
Assay [10] deals with Yellow fever virus. As to the kind of experiment: Antiviral activity against 10^2 CCID50 Yellow fever virus Jimenez infected in syrian golden hamster assessed as survival of animal at 400 mg/kg/day, po administered twice daily for 8 days started 1 day post viral infection. The class given is functional, organism-based.
In assay [11] the test system is Yellow fever virus. As to the kind of experiment: Antiviral activity against 10^2 CCID50 Yellow fever virus Jimenez infected in syrian golden hamster assessed as serum ALT level at 200 mg/kg/day, po administered twice daily for 8 days started 4 hrs prior to viral infection. The class given is functional.
The test system of assay [12] is Yellow fever virus. As to the kind of experiment: Antiviral activity against 10^2 CCID50 Yellow fever virus Jimenez infected in syrian golden hamster assessed as mean day of death of mice at 400 mg/kg/day, po administered twice daily for 8 days started 4 day post infection. The class given is functional.
Assay [13] concerns Yellow fever virus. As to the kind of experiment: Antiviral activity against 10^2 CCID50 Yellow fever virus Jimenez infected in syrian golden hamster assessed as reduction in viral titer in liver at 200 mg/kg/day administered twice daily for 8 days started 6 days post infection by quantitative RT-PCR analysis. In kind it is functional, organism-based.
In assay [14] the test system is Yellow fever virus. As to the kind of experiment: Antiviral activity against 10^2 CCID50 Yellow fever virus Jimenez infected in syrian golden hamster assessed as serum ALT level at 400 mg/kg/day, po administered daily for days started 2 day post viral challenge. The class given is functional.

As to `NC(=O)c1nc(F)cnc1O` [FAVIPIRAVIR], the outcome in the assay with Yellow fever virus [1] and with Yellow fever virus [5] was inactive. For the same compound, the Time with Yellow fever virus [2] is 6 days; with Yellow fever virus [3], >21 days; in the assay on Yellow fever virus [12], 6.5 days. Besides, the Activity with Yellow fever virus [4] came out at 189 IU/L; in the assay on Yellow fever virus [6] it was 75 IU/L; in the assay on Yellow fever virus [7], 52 IU/L; in the assay with Yellow fever virus [8], 63 IU/L; in the assay on Yellow fever virus [9], 131 IU/L; in the assay with Yellow fever virus [11], 128 IU/L. Also, the Activity with Yellow fever virus [14] came to 84 IU/L. The outcome with Yellow fever virus [10] and in the assay on Yellow fever virus [13] was Active.
